Source: patent publication US20250197387A1, “BCL-XL DEGRADERS AND USES THEREOF” (Kymera Therapeutics, Inc., priority 2021, published 2025)

Legend:
[1] = molecular target: T1, BCL-XL (Homo sapiens, UniProt Q07817); assay: BCL-XL degradation assay, western blot in MOLT-4 cells, 16 h; type: cell-based; conditions: for DC50: read-out: Bcl-xL WB in MOLT-4 degradation 16 h: Mean external-Abs DC50
T1 construct: endogenous in cells; host or cells: MOLT-4
Procedure, shortened: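 Infrared-imaged western blots quantified BCL-xL (normalised against beta-actin/GAPDH) after 16 hr, 37° C exposure of MOLT-4 cells to 0.02-10 μM compound; results given as DC50 and Dmax % bins.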

[2] = molecular target: T1, BCL-XL; assay: Bcl-xL ELISA degradation in MOLT-4 cells, 6 h; type: cell-based; conditions: for DC50: read-out: Bcl-xL ELISA in MOLT-4 degradation 6 h: Mean external-Abs DC50
Protocol: The letter codes for BCL-XL DC50 include: A (<0.01 μM); B (0.01-0.1 μM); C (>[…]); D (>0.5-1.0 μM); and E (>1.0 μM). The letter codes for Dmax % include A (>75%); B (50 to 75%); C (<50%).

[3] = western blot, MOLT-4 cells, 16 h, read-out: Bcl-xL WB in MOLT-4 degradation 16 h: Average Dmax %
[4] = western blot, MOLT-4 cells, 16 h

T1 sequence (Q07817 whole entry): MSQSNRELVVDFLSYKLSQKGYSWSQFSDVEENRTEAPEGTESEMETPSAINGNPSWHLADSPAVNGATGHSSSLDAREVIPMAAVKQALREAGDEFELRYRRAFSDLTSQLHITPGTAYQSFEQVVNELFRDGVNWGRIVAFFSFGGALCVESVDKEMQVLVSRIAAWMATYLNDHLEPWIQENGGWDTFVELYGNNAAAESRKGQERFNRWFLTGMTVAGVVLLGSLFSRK

SMILES	Dmax [1, 3] [%]	Dmax [2] [%]	DC50 [2] [nM]	DC50 [1, 4] [nM]	Dmax ([1]; MOLT-4, read-out: Bcl-xL WB in MOLT-4 degradation 16 h: Average Dmax %) [%]
Cc1ncsc1-c1ccc([C@H](C)NC(=O)[C@@H]2C[C@@H](O)CN2C(=O)[C@@H](NC(=O)N2CCC(CN3CCN(CC#Cc4ccc(OCCCc5sc(N6CCc7cccc(C(=O)Nc8nc9ccccc9s8)c7C6)nc5C(=O)O)c(F)c4)CC3)CC2)C(C)(C)C)cc1 [I-72]	< 50	< 50	10 to 100		
Cc1ncsc1-c1ccc([C@H](C)NC(=O)[C@@H]2C[C@@H](O)CN2C(=O)[C@@H](NC(=O)N2CCC3(CCC(C(=O)N4CCN(CC[C@H](CSc5ccccc5)Nc5ccc(S(=O)(=O)NC(=O)c6ccc(N7CCN(CC8=C(c9ccc(Cl)cc9)CCC(C)(C)C8)CC7)cc6)cc5S(=O)(=O)C(F)(F)F)CC4)CC3)CC2)C(C)(C)C)cc1 [I-126]	< 50			> 1000	
C#Cc1ccc([C@H](C)NC(=O)[C@@H]2C[C@@H](O)CN2C(=O)[C@@H](NC(=O)N2CCC3(CCC(C(=O)N4CCN(CC[C@H](CSc5ccccc5)Nc5ccc(S(=O)(=O)NC(=O)c6ccc(N7CCN(CC8=C(c9ccc(Cl)cc9)CCC(C)(C)C8)CC7)cc6)cc5S(=O)(=O)C(F)(F)F)CC4)CC3)CC2)C(C)(C)C)cc1 [I-127]	< 50			> 1000	
Cc1ncsc1-c1ccc([C@H](C)NC(=O)[C@@H]2C[C@@H](O)CN2C(=O)[C@@H](NC(=O)CCC2(Cn3ncc(-c4ccc(N5CCc6cccc(C(=O)Nc7nc8ccccc8s7)c6C5)nc4C(=O)O)c3C)CCCCC2)C(C)(C)C)cc1 [I-128, 6-(8-(benzo[d]thiazol-2-ylcarbamoyl)-3,4-dihydroisoquinolin-2 (1H)-yl)-3-(1-((1-(3-(((S)-1-((2S,4R)-4-hydroxy-2-(((S)-1-(4-(4-methylthiazol-5-yl)phenyl)ethyl)carbamoyl)pyrrolidin-1-yl)-3,3-dimethyl-1-oxobutan-2-yl)amino)-3-oxopropyl)cyclohexyl)methyl)-5-methyl-1H-pyrazol-4-yl)picolinic acid]	< 50			> 1000	
Cc1ncsc1-c1ccc([C@H](C)NC(=O)[C@@H]2C[C@@H](O)CN2C(=O)[C@@H](NC(=O)CCCNC(=O)CCC2(Cn3ncc(-c4ccc(N5CCc6cccc(C(=O)Nc7nc8ccccc8s7)c6C5)nc4C(=O)O)c3C)CCCCC2)C(C)(C)C)cc1 [I-129]	> 75			100 to 500	
Cc1ncsc1-c1ccc([C@H](C)NC(=O)[C@@H]2C[C@@H](O)CN2C(=O)[C@@H](NC(=O)CCCC(=O)N2CCN(CCCC3(Cn4ncc(-c5ccc(N6CCc7cccc(C(=O)Nc8nc9ccccc9s8)c7C6)nc5C(=O)O)c4C)CCCCC3)CC2)C(C)(C)C)cc1 [I-130]	50 to 75			100 to 500	
Cc1ncsc1-c1ccc([C@H](C)NC(=O)[C@@H]2C[C@@H](O)CN2C(=O)[C@@H](NC(=O)CCCCCC(=O)N2CCN(CCCC3(Cn4ncc(-c5ccc(N6CCc7cccc(C(=O)Nc8nc9ccccc9s8)c7C6)nc5C(=O)O)c4C)CCCCC3)CC2)C(C)(C)C)cc1 [I-131]	50 to 75			100 to 500	
Cc1ncsc1-c1ccc(CNC(=O)[C@@H]2C[C@@H](O)CN2C(=O)[C@@H](NC(=O)C2(F)CC2)C(C)(C)C)c(OCCCN2CCN(CC[C@H](CSc3ccccc3)Nc3ccc(S(=O)(=O)NC(=O)c4ccc(N5CCN(CC6=C(c7ccc(Cl)cc7)CCC(C)(C)C6)CC5)cc4)cc3S(=O)(=O)C(F)(F)F)CC2)c1 [I-132, (2S,4R)—N-(2-(3-(4-((R)-3-((4-(N-(4-(4-((4′-chloro-4,4-dimethyl-3,4,5,6-tetrahydro-[1,1′-biphenyl]-2-yl)methyl)piperazin-1-yl)benzoyl)sulfamoyl)-2-((trifluoromethyl)sulfonyl)phenyl)amino)-4-(phenylthio)butyl)piperazin-1-yl)propoxy)-4 (4-methylthiazol-5-yl)benzyl)-1-((S)-2-(1-fluorocyclopropanecarboxamido)-3,3-dimethylbutanoyl)-4-hydroxypyrrolidine-2-carboxamide]				10 to 100	> 75
Cc1ncsc1-c1ccc([C@H](C)NC(=O)[C@@H]2C[C@@H](O)CN2C(=O)[C@@H](c2cc(N3CC4(CN(c5ccc(S(=O)(=O)NC(=O)c6nc(N7CCc8cccc(C(=O)Nc9nc%10ccccc%10s9)c8C7)ccc6-c6cnn(CC7CCCCC7)c6C)cc5)C4)C3)no2)C(C)C)cc1 [I-226]	> 75	50 to 75	10 to 100	< 10	
Cc1ncsc1-c1ccc([C@H](C)NC(=O)[C@@H]2C[C@@H](O)CN2C(=O)C(c2cc(OC3CN(c4ccc(S(=O)(=O)NC(=O)c5nc(N6CCc7cccc(C(=O)Nc8nc9ccccc9s8)c7C6)ccc5-c5cnn(CC6CCCCC6)c5C)cc4)C3)no2)C(C)C)cc1 (stereo partly shown) [I-230]	> 75	> 75	10 to 100	< 10	
Cc1ncsc1-c1ccc([C@H](C)NC(=O)[C@@H]2C[C@@H](O)CN2C(=O)C(c2cc(OC3CCN(CCNC(=O)c4nc(N5CCc6cccc(C(=O)Nc7nc8ccccc8s7)c6C5)ccc4-c4cnn(CC5CCCCC5)c4C)CC3)no2)C(C)C)cc1 (stereo partly shown) [I-234]	50 to 75	< 50	> 1000	10 to 100	
Cc1ncsc1-c1ccc([C@H](C)NC(=O)[C@@H]2C[C@@H](O)CN2C(=O)[C@@H](c2cc(N3CC(N4CCC(NC(=O)c5nc(N6CCc7cccc(C(=O)Nc8nc9ccccc9s8)c7C6)ccc5-c5cnn(CC6CCCCC6)c5C)CC4)C3)no2)C(C)C)cc1 [I-236]	> 75	50 to 75	100 to 500	< 10	

Continued, in another order:

Dmax [1, 3] [%]	Dmax [2] [%]	DC50 [2] [nM]	DC50 [1, 4] [nM]	SMILES	Dmax ([1]; MOLT-4, read-out: Bcl-xL WB in MOLT-4 degradation 16 h: Average Dmax %) [%]
> 75	50 to 75	100 to 500	< 10	Cc1ncsc1-c1ccc([C@H](C)NC(=O)[C@@H]2C[C@@H](O)CN2C(=O)C(c2cc(OC3CC4(C3)CN(C(=O)c3nc(N5CCc6cccc(C(=O)Nc7nc8ccccc8s7)c6C5)ccc3-c3cnn(CC5CCCCC5)c3C)C4)no2)C(C)C)cc1 (stereo partly shown) [I-237]	
> 75	> 75	10 to 100	< 10	Cc1ncsc1-c1ccc([C@H](C)NC(=O)[C@@H]2C[C@@H](O)CN2C(=O)[C@@H](NC(=O)C2CCN(c3ccc(S(=O)(=O)NC(=O)c4nc(N5CCc6cccc(C(=O)Nc7nc8cccnc8s7)c6C5)ccc4-c4cnn(CC5CCCCC5)c4C)cc3)CC2)C(C)(C)C)cc1 [I-241]	
> 75	> 75	10 to 100	< 10	C#Cc1ccc([C@H](CO)NC(=O)[C@@H]2C[C@@H](O)CN2C(=O)[C@@H](NC(=O)C2CCN(c3ccc(S(=O)(=O)NC(=O)c4nc(N5CCc6cccc(C(=O)Nc7nc8ccccc8s7)c6C5)ccc4-c4cnn(CC5CCCCC5)c4C)cc3)CC2)C(C)(C)C)cc1 [I-242]	
> 75	> 75	10 to 100	< 10	Cc1cc(N(C)c2ccc(-c3cnn(CC45CC6CC(CC(C6)C4)C5)c3C)c(C(=O)NS(=O)(=O)c3ccc(N4CCC(C(=O)N[C@H](C(=O)N5C[C@H](O)C[C@H]5C(=O)N[C@@H](C)c5ccc(-c6scnc6C)cc5)C(C)(C)C)CC4)cc3)n2)nnc1Nc1nc2ccccc2s1 [I-246]	
50 to 75	< 50	> 1000	10 to 100	Cc1ncsc1-c1ccc([C@H](C)NC(=O)[C@@H]2C[C@@H](O)CN2C(=O)[C@@H](NC(=O)N2CC3(CC(N4CCN(C(=O)c5nc(N6CCc7cccc(C(=O)Nc8nc9ccccc9s8)c7C6)ccc5-c5cnn(CC6CCCCC6)c5C)CC4)C3)C2)C(C)(C)C)cc1 [I-248]	
> 75	< 50	> 1000	< 10	Cc1ncsc1-c1ccc(CNC(=O)[C@@H]2C[C@@H](O)CN2C(=O)[C@@H](NC(=O)C2(F)CC2)C(C)(C)C)c(OCC2CCN(CC[C@H](CSc3ccccc3)Nc3ccc(S(=O)(=O)NC(=O)c4ccc(N5CCN(CC6=C(c7ccc(Cl)cc7)CCC(C)(C)C6)CC5)cc4)cc3S(=O)(=O)C(F)(F)F)CC2)c1 [I-249]	
> 75			10 to 100	Cc1ncsc1-c1ccc(CNC(=O)[C@@H]2C[C@@H](O)CN2C(=O)[C@@H](NC(=O)CCOCCOCCOCC#Cc2ccc(OCCCc3sc(N4CCc5cccc(C(=O)Nc6nc7ccccc7s6)c5C4)nc3C(=O)O)cc2)C(C)(C)C)cc1 [I-385]	
> 75			10 to 100	Cc1ncsc1-c1ccc(CNC(=O)[C@@H]2C[C@@H](O)CN2C(=O)[C@@H](NC(=O)C2(F)CC2)C(C)(C)C)c(OCCCCCCCCC(=O)N(C)CC#Cc2ccc(OCCCc3sc(N4CCc5cccc(C(=O)Nc6nc7ccccc7s6)c5C4)nc3C(=O)O)c(F)c2)c1 [I-386]	
> 75			10 to 100	Cc1ncsc1-c1ccc([C@H](C)NC(=O)[C@@H]2C[C@@H](O)CN2C(=O)[C@@H](NC(=O)C[C@H]2CC[C@H](C(=O)N3CCN(CC[C@H](CSc4ccccc4)Nc4ccc(S(=O)(=O)NC(=O)c5ccc(N6CCN(CC7=C(c8ccc(Cl)cc8)CCC(C)(C)C7)CC6)cc5)cc4S(=O)(=O)C(F)(F)F)CC3)CC2)C(C)(C)C)cc1 [I-390]	
> 75			10 to 100	Cc1ncsc1-c1ccc([C@H](C)NC(=O)[C@@H]2C[C@@H](O)CN2C(=O)[C@@H](NC(=O)[C@H]2CC[C@H](CC(=O)N3CCN(CC[C@H](CSc4ccccc4)Nc4ccc(S(=O)(=O)NC(=O)c5ccc(N6CCN(CC7=C(c8ccc(Cl)cc8)CCC(C)(C)C7)CC6)cc5)cc4S(=O)(=O)C(F)(F)F)CC3)CC2)C(C)(C)C)cc1 [I-391]	
< 50			> 1000	Cc1ncsc1-c1ccc([C@H](C)NC(=O)[C@@H]2C[C@@H](O)CN2C(=O)[C@@H](NC(=O)CCCCCC(=O)N2CCN(CC[C@@H](CSc3ccccc3)Nc3ccc(S(=O)(=O)NC(=O)c4ccc(N5CCC(C)(C)CC5)cc4)cc3S(=O)(=O)C(F)(F)F)CC2)C(C)(C)C)cc1 [I-393]	
